From US7109243B2 (IRM LLC, priority 2003, dated 2006)
pKi: −log10 of the molar value.

Key:
Cathepsin S = Cathepsin S (Homo sapiens, UniProt P25774); test: Cathepsin S inhibition assay (fluorogenic peptide substrate); assay type: biochemical; settings: Table II, compounds of Formula I; read-out: Ki Cat. S
Summary of the method: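 Ki values come from nonlinear fitting of inhibited hydrolysis rates, taking free and total inhibitor concentrations as equal. Rates measured as rising fluorescence at 380/450 nm after reaction start with 50 μM final acetyl-HPVK-aminocarbamoylcoumarin.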

Cathepsin K = molecular target: T1, Cathepsin K (Homo sapiens, UniProt P43235); test: Cathepsin K inhibition assay (fluorogenic peptide substrate); selectivity ratio vs cathepsin S; assay type: biochemical; settings: ratio of cathepsin K inhibition constant to cathepsin S inhibition constant; Table II
T1 sequence (P43235 115-329): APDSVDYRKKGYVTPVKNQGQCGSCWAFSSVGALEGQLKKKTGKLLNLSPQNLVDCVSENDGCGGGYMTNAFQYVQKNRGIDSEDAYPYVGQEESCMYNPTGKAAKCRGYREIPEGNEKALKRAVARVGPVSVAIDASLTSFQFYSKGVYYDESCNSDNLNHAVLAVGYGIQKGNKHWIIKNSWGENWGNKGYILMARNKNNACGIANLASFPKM
Summary of the method: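 Inhibition constants for competitive inhibitors come from apparent values fitted to enzyme progress curves. Substrate, acetyl-Lys-His-Pro-Lys-aminocarbamoylcoumarin (40 μM final), starts the reaction; fluorescence rise read at 380 nm excitation, 450 nm emission. Selectivity ratio: other cathepsin constant over cathepsin S constant.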

Sequence of Cathepsin S (P25774 115-331, species assumed): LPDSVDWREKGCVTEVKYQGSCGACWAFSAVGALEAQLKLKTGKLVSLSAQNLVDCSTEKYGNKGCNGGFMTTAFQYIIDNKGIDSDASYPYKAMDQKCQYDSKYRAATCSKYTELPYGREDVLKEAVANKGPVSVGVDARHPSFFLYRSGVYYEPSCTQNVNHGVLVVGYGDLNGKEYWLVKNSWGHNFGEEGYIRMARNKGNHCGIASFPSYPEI

Row | pKi (Cathepsin S) | Selectivity for Cat. S over Cat. K (Cathepsin K) | SMILES
1 | > 6.00 | ++ (++, >100) | CS(=O)(=O)c1ccc(CC(=O)N[C@@H](CC2CCCCC2)C(=O)NCCNc2ccc(F)cc2)cc1 [Compound 326, 3-Cyclohexyl-N-[2-(4-fluoro-phenylamino)-ethyl]-2-(S)-[2-(4-methanesulfonyl-phenyl)-acetylamino]-propionamide]
2 | > 7.00 | +++ (+++, >1000) | CS(=O)(=O)c1ccc(C(=O)N[C@@H](CC2CCCCC2)C(=O)NCCNc2ccc(OC(F)(F)F)cc2)s1 [Compound 53, 5-Methanesulfonyl-thiophene-2-carboxylic acid (S)-{2-cyclohexyl-1-[2-(4-trifluoromethoxy-phenylamino)-ethylcarbamoyl]-ethyl}-amide]
3 | > 7.00 | +++ (+++, >1000) | COc1ccc(NCCNC(=O)[C@H](CC2CCCCC2)NC(=O)c2cccc(F)c2C)cc1 [Compound 147, (S)-N-{2-Cyclohexyl-1-[2-(4-methoxy-phenylamino)-ethylcarbamoyl]-ethyl}-3-fluoro-2-methyl-benzamide]
4 | > 7.00 | +++ (+++, >1000) | CC[C@@H](C(=O)N[C@@H](CC1CCCCC1)C(=O)NCCNc1ccc(OC(F)(F)F)cc1)c1ccccc1 [Compound 135, N-{2-cyclohexyl-1-(S)-[2-(4-trifluoromethoxy-phenylamino)-ethylcarbamoyl]-ethyl}-2-(R)-phenyl-butyramide]
5 | > 7.00 | +++ (+++, >1000) | COc1ccc(NCCNC(=O)[C@H](CCC2CCCCC2)NC(=O)c2ccc(C#N)cc2)cc1 [Compound 140, (S)-4-Cyano-N-{3-cyclohexyl-1-[2-(4-methoxy-phenylamino)-ethylcarbamoyl]-propyl}-benzamide]
6 | > 7.00 | ++ (++, >100) | COc1ccc(NCCNC(=O)[C@H](CC2CCCCC2)NC(=O)c2ccc(C)c(Br)c2)cc1 [Compound 112, (S)-3-Bromo-N-{2-cyclohexyl-1-[2-(4-methoxy-phenylamino)-ethylcarbamoyl]-ethyl}-4-methyl-benzamide]
7 | > 7.00 | +++ (+++, >1000) | COc1ccc(NCCNC(=O)[C@H](CC2CCCCC2)NC(=O)c2cc(Cl)cc(Cl)c2)cc1 [Compound 179, (S)-3,5-Dichloro-N-{2-cyclohexyl-1-[2-(4-methoxy-phenylamino)-ethylcarbamoyl]-ethyl}-benzamide]
8 | > 7.00 | ++ (++, >100) | CS(=O)(=O)Nc1cccc(C(=O)N[C@@H](CC2CCCCC2)C(=O)NCCNc2ccc(F)cc2)c1 [Compound 84, N-(S)-{2-cyclohexyl-1-[2-(4-fluoro-phenylamino)-ethylcarbamoyl]-ethyl}-3-methanesulfonylamino-benzamide]

Second part, the compound before the results:

Row | SMILES | pKi (Cathepsin S) | Selectivity for Cat. S over Cat. K (Cathepsin K)
9 | COc1ccc(NCCNC(=O)[C@H](CC2CCCCC2)NC(=O)c2nc(C)oc2C(F)(F)F)cc1 [Compound 190, (S)-2-Methyl-5-trifluoromethyl-oxazole-4-carboxylic acid {2-cyclohexyl-1-[2-(4-methoxy-phenylamino)-ethylcarbamoyl]-ethyl}-amide] | > 7.00 | +++ (+++, >1000)
10 | COc1ccc(NCCNC(=O)[C@H](COCc2ccccc2)NC(=O)c2cccc(C)c2)cc1 [Compound 254, (S)-N-{2-Benzyloxy-1-[2-(4-methoxy-phenylamino)-ethylcarbamoyl]-ethyl}-3-methyl-benzamide] | > 6.00 | ++ (++, >100)
11 | COc1ccc(NCCNC(=O)C(NC(=O)c2cccc(C)c2)c2cccc(Cl)c2Cl)cc1 (stereo not shown) [Compound 223, N-{(2,3-Dichloro-phenyl)-[2-(4-methoxy-phenylamino)-ethylcarbamoyl]-methyl}-3-methyl-benzamide] | > 6.00 | ++ (++, >100)
12 | COc1ccc(NCCNC(=O)[C@H](Cc2cccc(C)c2)NC(=O)c2cccc(C)c2)cc1 [Compound 238, (S)-N-{1-[2-(4-Methoxy-phenylamino)-ethylcarbamoyl]-2-m-tolyl-ethyl}-3-methyl-benzamide] | > 7.00 | + (+, >10)
13 | O=C(N[C@@H](CC1CCCCC1)C(=O)NCCNc1ccc(OC(F)(F)F)cc1)c1ccc(Cn2cnc3ccccc32)cc1 [Compound 43, 4-Benzoimidazol-1-ylmethyl-N-{2-cyclohexyl-1-(S)-[2-(4-trifluoromethoxy-phenylamino)-ethylcarbamoyl]-ethyl}-benzamide] | > 7.00 | + (+, >10)
14 | O=C(N[C@@H](CC1CCCCC1)C(=O)NCCNc1ccc(OC(F)(F)F)cc1)c1ccc(-c2cc(C(F)(F)F)ccc2Cl)o1 [Compound 251, (S)-5-(2-Chloro-5-trifluoromethyl-phenyl)-furan-2-carboxylic acid {2-cyclohexyl-1-[2-(4-trifluoromethoxy-phenylamino)-ethylcarbamoyl]-ethyl}-amide] | > 7.00 | +++ (+++, >1000)
15 | COc1ccc(NCCNC(=O)[C@H](Cc2ccc(-c3cccc(N)c3)cc2)NC(=O)c2cccc(C)c2)cc1 [Compound 280, (S)-N-{2-(3′-Amino-biphenyl-4-yl)-1-[2-(4-methoxy-phenylamino)-ethylcarbamoyl]-ethyl}-3-methyl-benzamide] | > 6.00 | ++ (++, >100)
16 | COc1ccc(NCCNC(=O)[C@H](CC2CCCCC2)NC(=O)c2cnn(-c3ccc(OC)cc3)c2C)cc1 [Compound 162, (S)-1-(4-Methoxy-phenyl)-5-methyl-1H-pyrazole-4-carboxylic acid {2-cyclohexyl-1-[2-(4-methoxy-phenylamino)-ethylcarbamoyl]-ethyl}-amide] | > 7.00 | + (+, >10)
17 | COc1ccc(NCCNC(=O)[C@H](Cc2ccccc2)NC(=O)Nc2cccc(OC)c2)cc1 [Compound 104, (S)-N-[2-(4-Methoxy-phenylamino)-ethyl]-2-[3-(3-methoxy-phenyl)-ureido]-3-phenyl-propionamide] | > 5.00 | + (+, >10)
18 | COc1ccc(NCCNC(=O)[C@H](Cc2ccccc2)NC(=O)c2cccc(-c3csc(C)n3)c2)cc1 [Compound 56, (S)-N-{1-[2-(4-Methoxy-phenylamino)-ethylcarbamoyl]-2-phenyl-ethyl}-3-(2-methyl-thiazol-4-yl)-benzamide] | > 6.00 | ++ (++, >100)
19 | O=C(N[C@@H](CC1CCCCC1)C(=O)NCCNc1ccc(OC(F)(F)F)cc1)C1CC(=O)N(Cc2ccco2)C1 (stereo partly drawn) [Compound 39, 1-Furan-2-ylmethyl-5-oxo-pyrrolidine-3-carboxylic acid (S)-{2-cyclohexyl-1-[2-(4-trifluoromethoxy-phenylamino)-ethylcarbamoyl]-ethyl}-amide] | > 6.00 | ++ (++, >100)
20 | COc1ccc(NCCNC(=O)[C@H](Cc2ccc(Oc3ccc(Cl)cc3)cc2)NC(=O)c2cccc(C)c2)cc1 [Compound 300, (S)-N-{2-[4-(4-Chloro-phenoxy)-phenyl]-1-[2-(4-methoxy-phenylamino)-ethylcarbamoyl]-ethyl}-3-methyl-benzamide] | > 7.00 | ++ (++, >100)
